Eight compounds from PubChem BioAssay AID1745844 (Carcinogenic Potency Database (CPDB), 2022) can be followed below.

The source made the active and inactive calls. The rule behind the calls is not given here.

This data set has as its system rodent lifetime carcinogenesis bioassay, tumor incidence TD50. Nature of the data set: carcinogenic potency in animals, long-term in vivo studies, CPDB compilation (AID 1745844).

Consider `CC[C@H]1OC(=O)[C@H](C)[C@@H](O[C@H]2C[C@@](C)(OC)[C@@H](O)[C@H](C)O2)[C@H](C)[C@@H](O[C@@H]2O[C@H](C)C[C@H](N(C)C)[C@H]2O)[C@](C)(O)C[C@@H](C)C(=O)[C@H](C)[C@@H](O)[C@]1(C)O`, for which the carcinogen call runs as follows: (mouse, strain B6C3F1, females, in feed, site: any site (literature study), lesion: several types, types named in the paper, dosed 103 weeks, study length 104 weeks) “negative (inactive)”; (mouse, strain B6C3F1, males, in feed, site: any site (literature study), lesion: several types, types named in the paper, dosed 103 weeks, study length 104 weeks) “negative (inactive)”; (rat, strain Fischer 344, females, in feed, site: any site (literature study), lesion: several types, types named in the paper, dosed 103 weeks, study length 104 weeks) “negative (inactive)”. In addition, the TD50 – broadly, the 50% point of the dose-response relation for the toxic effect studied – is, setting by setting: (rat, strain Fischer 344, females, in feed, site: liver, lesion: hepatocellular adenoma + hepatocellular carcinoma + neoplastic nodule, dosed 103 weeks, study length 104 weeks) 5850 mg/kg/day; (rat, strain Fischer 344, males, in feed, site: any site (literature study), lesion: several types, types named in the paper, dosed 103 weeks, study length 104 weeks) 2020 mg/kg/day (inactive); (rat, strain Fischer 344, males, in feed, site: liver, lesion: hepatocellular adenoma + hepatocellular carcinoma + neoplastic nodule, dosed 103 weeks, study length 104 weeks) 3950 mg/kg/day.
`CC1(C)S[C@@H]2[C@H](NC(=O)COc3ccccc3)C(=O)N2[C@H]1C(=O)O`: the carcinogen call is, setting by setting: (mouse, strain B6C3F1, females, by gavage, site: any site (literature study), lesion: several types, types named in the paper, dosed 104 weeks, study length 104 weeks) “negative (inactive)”; (mouse, strain B6C3F1, males, by gavage, site: any site (literature study), lesion: several types, types named in the paper, dosed 104 weeks, study length 104 weeks) “negative (inactive)”. Moreover, the TD50 was 10200 mg/kg/day (mouse, strain B6C3F1, females, by gavage, site: liver, lesion: hepatocellular adenoma + hepatocellular carcinoma + neoplastic nodule, dosed 104 weeks, study length 104 weeks); 16600 mg/kg/day (mouse, strain B6C3F1, females, by gavage, site: lung, lesion: alveolar/bronchiolar adenoma + alveolar/bronchiolar carcinoma, dosed 104 weeks, study length 104 weeks); 503 mg/kg/day (rat, strain Fischer 344, females, by gavage, site: any site (literature study), lesion: several types, types named in the paper, dosed 103 weeks, study length 104 weeks); 3650 mg/kg/day (rat, strain Fischer 344, females, by gavage, site: clitoral gland, lesion: adenoma, NOS, dosed 103 weeks, study length 104 weeks); 1360 mg/kg/day (inactive) (rat, strain Fischer 344, females, by gavage, site: thyroid gland, lesion: c-cell adenoma + c-cell carcinoma, dosed 103 weeks, study length 104 weeks); 1620 mg/kg/day (rat, strain Fischer 344, females, by gavage, site: thyroid gland, lesion: c-cell adenoma, dosed 103 weeks, study length 104 weeks). Further, the TD50 was 544 mg/kg/day (rat, strain Fischer 344, males, by gavage, site: any site (literature study), lesion: several types, types named in the paper, dosed 103 weeks, study length 104 weeks); 12200 mg/kg/day (rat, strain Fischer 344, males, by gavage, site: liver, lesion: hepatocellular adenoma + hepatocellular carcinoma + neoplastic nodule, dosed 103 weeks, study length 104 weeks); 874 mg/kg/day (inactive) (rat, strain Fischer 344, males, by gavage, site: pituitary gland, anterior, lesion: adenoma, NOS + carcinoma, NOS, dosed 103 weeks, study length 104 weeks); 949 mg/kg/day (rat, strain Fischer 344, males, by gavage, site: pituitary gland, anterior, lesion: adenoma, NOS, dosed 103 weeks, study length 104 weeks).
Turning to `CCCCNC(N)=O`, the carcinogen call (mouse, strain C57BL/6, females, in feed, site: any site (literature study), lesion: several types, types named in the paper, dosed 52 weeks, study length 69 weeks) is “negative (inactive)”; the carcinogen call (mouse, strain C57BL/6, females, in feed, site: liver, lesion: hepatocellular carcinoma, dosed 52 weeks, study length 69 weeks) was “negative (inactive)”; the carcinogen call (mouse, strain C57BL/6, females, in feed, site: lung, lesion: adenoma, dosed 52 weeks, study length 69 weeks) was “negative (inactive)”; the carcinogen call (mouse, strain C57BL/6, males, in feed, site: liver, lesion: hepatocellular carcinoma, dosed 52 weeks, study length 69 weeks) is “negative (inactive)”; the carcinogen call (rat, strain Fischer 344, females, in feed, site: any site (literature study), lesion: several types, types named in the paper, dosed 52 weeks, study length 69 weeks) was “negative (inactive)”; the carcinogen call (rat, strain Fischer 344, females, in feed, site: liver, lesion: one or several types, types not named, dosed 52 weeks, study length 69 weeks) was “negative (inactive)”. The carcinogen call was “negative (inactive)” (rat, strain Fischer 344, males, in feed, site: any site (literature study), lesion: several types, types named in the paper, dosed 52 weeks, study length 69 weeks) and “negative (inactive)” (rat, strain Fischer 344, males, in feed, site: liver, lesion: one or several types, types not named, dosed 52 weeks, study length 69 weeks). The TD50 reads like this: (mouse, strain C57BL/6, males, in feed, site: any site (literature study), lesion: several types, types named in the paper, dosed 52 weeks, study length 69 weeks) 699 mg/kg/day (inactive); (mouse, strain C57BL/6, males, in feed, site: lung, lesion: adenoma, dosed 52 weeks, study length 69 weeks) 5510 mg/kg/day (inactive).
Consider `[N-]=[N+]=CC(=O)OC[C@H](N)C(=O)O`, for which the TD50 is, setting by setting: (rat, strain Wistar, both sexes, i.p., site: kidney, lesion: one or several types, types not named, dosed 26 weeks, study length 78 weeks) 0.942 mg/kg/day; (rat, strain Wistar, both sexes, i.p., site: liver, lesion: one or several types, types not named, dosed 26 weeks, study length 78 weeks) 3.02 mg/kg/day; (rat, strain Wistar, both sexes, i.p., site: pancreas, exocrine, lesion: carcinoma, dosed 26 weeks, study length 78 weeks) 0.793 mg/kg/day. Moreover, the carcinogen call (rat, strain Wistar, males, i.p., site: pancreas, lesion: one or several types, types not named, dosed 104 weeks, study length 104 weeks) is “negative (inactive)”.
In the case of `CN(C)N=Nc1ccccc1`, the TD50 is 2.31 mg/kg/day (rat, strain BD, both sexes, by gavage, site: any site (literature study), lesion: malignant tumor, dosed 104 weeks, study length 104 weeks) and 5.81 mg/kg/day (rat, strain BD, both sexes, by gavage, site: brain, lesion: several types, types named in the paper, dosed 104 weeks, study length 104 weeks).
Turning to `NNC(N)=O`, the TD50 (mouse, strain Swiss albino, females, in drinking water, site: blood vessels, lesion: angioma, dosed 118 weeks, study length 118 weeks) was 975 mg/kg/day; the TD50 (mouse, strain Swiss albino, females, in drinking water, site: blood vessels, lesion: angiosarcoma, dosed 118 weeks, study length 118 weeks) is 798 mg/kg/day; the TD50 (mouse, strain Swiss albino, females, in drinking water, site: blood vessels, lesion: several types, types named in the paper, dosed 118 weeks, study length 118 weeks) was 395 mg/kg/day; the TD50 (mouse, strain Swiss albino, females, in drinking water, site: liver, lesion: several types, types named in the paper, dosed 118 weeks, study length 118 weeks) turned out to be 798 mg/kg/day; the TD50 (mouse, strain Swiss albino, females, in drinking water, site: lung, lesion: adenoma, dosed 118 weeks, study length 118 weeks) worked out at 333 mg/kg/day; the TD50 (mouse, strain Swiss albino, females, in drinking water, site: lung, lesion: several types, types named in the paper, dosed 118 weeks, study length 118 weeks) was 223 mg/kg/day. Further, the TD50 (mouse, strain Swiss albino, males, in drinking water, site: liver, lesion: hepatoma, dosed 118 weeks, study length 118 weeks) is 1420 mg/kg/day (inactive); the TD50 (mouse, strain Swiss albino, males, in drinking water, site: liver, lesion: several types, types named in the paper, dosed 118 weeks, study length 118 weeks) turned out to be 933 mg/kg/day; the TD50 (mouse, strain Swiss albino, males, in drinking water, site: lung, lesion: adenoma, dosed 118 weeks, study length 118 weeks) stood at 745 mg/kg/day; the TD50 (mouse, strain Swiss albino, males, in drinking water, site: lung, lesion: several types, types named in the paper, dosed 118 weeks, study length 118 weeks) was 833 mg/kg/day.
For `CN(C)c1ccc(Cc2ccc(N(C)C)cc2)cc1`, the TD50 was 280 mg/kg/day (mouse, strain B6C3F1, females, in feed, site: any site (literature study), lesion: several types, types named in the paper, dosed 78 weeks, study length 91 weeks); 207 mg/kg/day (mouse, strain B6C3F1, females, in feed, site: liver, lesion: hepatocellular adenoma + hepatocellular carcinoma + neoplastic nodule, dosed 78 weeks, study length 91 weeks); 207 mg/kg/day (mouse, strain B6C3F1, females, in feed, site: liver, lesion: hepatocellular adenoma + hepatocellular carcinoma, dosed 78 weeks, study length 91 weeks); 1080 mg/kg/day (mouse, strain B6C3F1, females, in feed, site: lung, lesion: alveolar/bronchiolar adenoma + alveolar/bronchiolar carcinoma, dosed 78 weeks, study length 91 weeks); 367 mg/kg/day (inactive) (mouse, strain B6C3F1, males, in feed, site: any site (literature study), lesion: several types, types named in the paper, dosed 78 weeks, study length 91 weeks); 558 mg/kg/day (mouse, strain B6C3F1, males, in feed, site: liver, lesion: hepatocellular adenoma + hepatocellular carcinoma + neoplastic nodule, dosed 78 weeks, study length 91 weeks). In addition, the TD50 reads like this: (mouse, strain B6C3F1, males, in feed, site: lung, lesion: alveolar/bronchiolar adenoma + alveolar/bronchiolar carcinoma, dosed 78 weeks, study length 91 weeks) 1410 mg/kg/day; (rat, strain Fischer 344, females, in feed, site: any site (literature study), lesion: several types, types named in the paper, dosed 59 weeks, study length 104 weeks) 41.7 mg/kg/day; (rat, strain Fischer 344, females, in feed, site: liver, lesion: hepatocellular adenoma + hepatocellular carcinoma + neoplastic nodule, dosed 59 weeks, study length 104 weeks) 203 mg/kg/day; (rat, strain Fischer 344, females, in feed, site: liver, lesion: neoplastic nodule, dosed 59 weeks, study length 104 weeks) 203 mg/kg/day; (rat, strain Fischer 344, females, in feed, site: thyroid gland, lesion: follicular-cell adenoma + follicular-cell carcinoma, dosed 59 weeks, study length 104 weeks) 16.4 mg/kg/day; (rat, strain Fischer 344, females, in feed, site: thyroid gland, lesion: follicular-cell carcinoma, dosed 59 weeks, study length 104 weeks) 27.7 mg/kg/day. Moreover, the TD50 reads like this: (rat, strain Fischer 344, males, in feed, site: any site (literature study), lesion: several types, types named in the paper, dosed 59 weeks, study length 104 weeks) 42.9 mg/kg/day; (rat, strain Fischer 344, males, in feed, site: thyroid gland, lesion: follicular-cell adenoma + follicular-cell carcinoma, dosed 59 weeks, study length 104 weeks) 16.5 mg/kg/day; (rat, strain Fischer 344, males, in feed, site: thyroid gland, lesion: follicular-cell carcinoma, dosed 59 weeks, study length 104 weeks) 28.6 mg/kg/day.
On to `CC1=CC(=C(c2ccc(N)cc2)c2ccc(N)cc2)C=CC1=N`, for which the carcinogen call runs as follows: (hamster, strain Syrian Golden, females, by gavage, site: any site (literature study), lesion: several types, types named in the paper, dosed 68 weeks, study length 68 weeks) “negative (inactive)”; (hamster, strain Syrian Golden, males, by gavage, site: any site (literature study), lesion: several types, types named in the paper, dosed 84 weeks, study length 84 weeks) “negative (inactive)”; (rat, strain Sprague-Dawley, females, by gavage, site: any site (literature study), lesion: several types, types named in the paper, dosed 107 weeks, study length 107 weeks) “negative (inactive)”; (rat, strain Sprague-Dawley, males, by gavage, site: any site (literature study), lesion: several types, types named in the paper, dosed 111 weeks, study length 111 weeks) “negative (inactive)”. The TD50 (hamster, strain Syrian Golden, males, by gavage, site: lung, lesion: bronchiolar adenoma, dosed 84 weeks, study length 84 weeks) was 2020 mg/kg/day (inactive).
